# According to the supplement of paper PMC11208160:
# Assay: recombinant barcode read abundance after kanamycin selection (control-corrected) (log10(CPM+1)); higher = more efficient recombination; sequences stand for … in AGTGCAGAGAAAATCGGCCAGTTTTCTCTGCCTGCAGTCCGCATGCCGT…AGATTTATGCAGCGGACTGCCTTTCTCCCAAAGTGATAAACCGGACAGTATCATGGACCGGTTTTCCCGGTAATCCGTATTTGCAAGGTTGGTTTCACT; site = the 11-nt target
# Summary of the method: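 Targets and IS621 bridge RNA target-binding loops were paired in oligos, each with a promoter, a barcode and the J23119-driven first 104 bridge RNA bases. A vector carrying the remaining 73 bp and a T7-inducible recombinase received these by Gibson cloning, and the pool was co-electroporated into E. coli with a donor plasmid. Duplicate plates contained chloramphenicol/ampicillin LB agar (control) or chloramphenicol/ampicillin/kanamycin with 0.1 mM IPTG. Recombination efficiency comes from averaged, control-corrected counts per million of recombinant-junction barcodes, reported as log10(CPM+1).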
# 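Note: IS621 recombinase and bridge RNA in Escherichia coli cells.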
row,Sequence,recombinant barcode read abundance (log10)
1,CCTGGTCCTTGGGTTCTAACCTGTTGCAT (site CCTGGACCTAA),0.195
2,CCTGGTCCTTGGGTTCTAACCTGTTGCAT (site CCTGGTCCTAT),1.42
3,CCTTAGTCTTGGGTTCTAACCTGTTGCAG (site ACATAGTCTCT),0.169
4,CCTTAGTCTTGGGTTCTAACCTGTTGCAG (site CCTTAGTCTCT),1.15
5,CCTTCCACTTGGGTTCTAACCTGTTGCCT (site ACTTCCACTAG),0.00909
6,CCTTCCACTTGGGTTCTAACCTGTTGCCT (site CCTTCCACTAG),0.285
7,CCTTCCACTTGGGTTCTAACCTGTTGCCT (site GCTTCCACTAG),0.0418
8,CCTTCCACTTGGGTTCTAACCTGTTGCCT (site TCTTCCACTAG),0.0607
9,CCTTCCTCTTGGGTTCTAACCTGTTGCCT (site CATTCCTCTAG),0.018
10,CCTTCCTCTTGGGTTCTAACCTGTTGCCT (site CCTTCCTCTAG),0.599
11,CCTTCCTCTTGGGTTCTAACCTGTTGCCT (site CGTTCCTCTAG),0.0856
12,CCTTCCTCTTGGGTTCTAACCTGTTGCCT (site CTTTCCTCTAG),0
13,CCTTGGACTTGGGTTCTAACCTGTTGCCT (site CCTTGCTCTAG),0.084
14,CCTTGGACTTGGGTTCTAACCTGTTGCCT (site CCTTGGACTAG),0.427
15,CCTTTGTCTTGGGTTCTAACCTGTTGCTT (site CCTTTGACTAA),0.155
16,CCTTTGTCTTGGGTTCTAACCTGTTGCTT (site CCTTTGTCTAA),0.243
17,CGAAAATCTTGGGTTCTAACCTGTTGCCT (site CGAAAATCTAG),0.0664
18,CGAAAATCTTGGGTTCTAACCTGTTGCCT (site CGCAAATCTAG),1.33
19,CGAAAATCTTGGGTTCTAACCTGTTGCCT (site CGGAAATCTAG),0.18
20,CGAAAATCTTGGGTTCTAACCTGTTGCCT (site CGTAAATCTAG),0.128
21,CGAAGCTCTTGGGTTCTAACCTGTTGCCT (site CGAAGCTCTAG),1.44
22,CGAAGCTCTTGGGTTCTAACCTGTTGCCT (site CGCAGCTCTAG),0.211

row,Sequence,recombinant barcode read abundance (log10)
1,CGAAGCTCTTGGGTTCTAACCTGTTGCCT (site CGGAGCTCTAG),0.108
2,CGAAGCTCTTGGGTTCTAACCTGTTGCCT (site CGTAGCTCTAG),0.223
3,CGAATCCCTTGGGTTCTAACCTGTTGCCT (site CGAATCACTAG),0.107
4,CGAATCCCTTGGGTTCTAACCTGTTGCCT (site CGAATCCCTAG),0.809
5,CGAATCCCTTGGGTTCTAACCTGTTGCCT (site CGAATCGCTAG),0.0332
6,CGAATCCCTTGGGTTCTAACCTGTTGCCT (site CGAATCTCTAG),0.117
7,CGACATCCTTGGGTTCTAACCTGTTGCCT (site CGACATCCTAG),0.214
8,CGACATCCTTGGGTTCTAACCTGTTGCCT (site CGAGATCCTAG),0.409
9,CGACCGACTTGGGTTCTAACCTGTTGCAG (site CGACCGACTCT),0.42
10,CGACCGACTTGGGTTCTAACCTGTTGCAG (site CGATCGACTCT),0.158
11,CGACGTACTTGGGTTCTAACCTGTTGCCT (site CGACGTACTAG),0.151
12,CGACGTACTTGGGTTCTAACCTGTTGCCT (site CGCCGTACTAG),0.226
13,CGACGTACTTGGGTTCTAACCTGTTGCCT (site CGGCGTACTAG),0.0649
14,CGACGTACTTGGGTTCTAACCTGTTGCCT (site CGTCGTACTAG),0
15,CGACTGACTTGGGTTCTAACCTGTTGCCT (site CGACTGACTAG),0.229
16,CGACTGACTTGGGTTCTAACCTGTTGCCT (site CGTCTGACTTG),0.0517
17,CGACTGCCTTGGGTTCTAACCTGTTGCGT (site CGAATGTCTAC),0.527
18,CGACTGCCTTGGGTTCTAACCTGTTGCGT (site CGACTGCCTAC),2.09
19,CGAGCAGCTTGGGTTCTAACCTGTTGCCT (site CGAGCAGCTAG),0.395
20,CGAGCAGCTTGGGTTCTAACCTGTTGCCT (site CGCGCAGCTAG),0.152
21,CGAGCAGCTTGGGTTCTAACCTGTTGCCT (site CGGGCAGCTAG),0.519
22,CGAGCAGCTTGGGTTCTAACCTGTTGCCT (site CGTGCAGCTAG),0.0197

row,Sequence,recombinant barcode read abundance (log10)
1,CGAGGGTCTTGGGTTCTAACCTGTTGCCT (site CGAGGGACTAG),0.0535
2,CGAGGGTCTTGGGTTCTAACCTGTTGCCT (site CGAGGGCCTAG),0.279
3,CGAGGGTCTTGGGTTCTAACCTGTTGCCT (site CGAGGGGCTAG),0.0907
4,CGAGGGTCTTGGGTTCTAACCTGTTGCCT (site CGAGGGTCTAG),1.87
5,CGAGGGTCTTGGGTTCTAACCTGTTGCTT (site AGAGGGTCTAA),0.172
6,CGAGGGTCTTGGGTTCTAACCTGTTGCTT (site CGAGGGTCTAA),1.82
7,CGAGGGTCTTGGGTTCTAACCTGTTGCTT (site GGAGGGTCTAA),0.413
8,CGAGGGTCTTGGGTTCTAACCTGTTGCTT (site TGAGGGTCTAA),0.147
9,CGAGGTTCTTGGGTTCTAACCTGTTGCCT (site CGAGGTTCTAG),1.06
10,CGAGGTTCTTGGGTTCTAACCTGTTGCCT (site CGCGGTTCTAG),0.212
11,CGAGTCCCTTGGGTTCTAACCTGTTGCAG (site ATCTAAACTAG),0.137
12,CGAGTCCCTTGGGTTCTAACCTGTTGCAG (site CGAGTCCCTCT),2.15
13,CGAGTGTCTTGGGTTCTAACCTGTTGCTA (site CGAGTGTCTTA),1.96
14,CGAGTGTCTTGGGTTCTAACCTGTTGCTA (site GATCACCCTAT),0.0951
15,CGATCATCTTGGGTTCTAACCTGTTGCCT (site CGATCATCTAG),0.103
16,CGATCATCTTGGGTTCTAACCTGTTGCCT (site CGCTCATCTAG),0.0503
17,CGATCATCTTGGGTTCTAACCTGTTGCCT (site CGGTCATCTAG),0.173
18,CGATCATCTTGGGTTCTAACCTGTTGCCT (site CGTTCATCTAG),0.0823
19,CGATCCACTTGGGTTCTAACCTGTTGCCT (site AGATCCACTAG),0.0256
20,CGATCCACTTGGGTTCTAACCTGTTGCCT (site CGATCCACTAG),0.0891
21,CGATCCACTTGGGTTCTAACCTGTTGCCT (site GGATCCACTAG),1.56
22,CGATCCACTTGGGTTCTAACCTGTTGCCT (site TGATCCACTAG),0.0673

row,Sequence,recombinant barcode read abundance (log10)
1,CGATCTCCTTGGGTTCTAACCTGTTGCAC (site ACTCACTCTAG),0.0376
2,CGATCTCCTTGGGTTCTAACCTGTTGCAC (site CGATCTCCTGT),0.303
3,CGATGACCTTGGGTTCTAACCTGTTGCAT (site CGATGACCTAT),1.48
4,CGATGACCTTGGGTTCTAACCTGTTGCAT (site CGATGGCCTAT),0.107
5,CGATGGCCTTGGGTTCTAACCTGTTGCAT (site CGATGACCTAT),0.388
6,CGATGGCCTTGGGTTCTAACCTGTTGCAT (site CGATGGCCTAT),0.433
7,CGATTAGCTTGGGTTCTAACCTGTTGCCG (site ATTCACACTAC),0.0236
8,CGATTAGCTTGGGTTCTAACCTGTTGCCG (site CGATTAGCTCG),0.536
9,CGATTATCTTGGGTTCTAACCTGTTGCCT (site CGATTAACTAG),0.25
10,CGATTATCTTGGGTTCTAACCTGTTGCCT (site CGATTACCTAG),0.162
11,CGATTATCTTGGGTTCTAACCTGTTGCCT (site CGATTAGCTAG),0.0752
12,CGATTATCTTGGGTTCTAACCTGTTGCCT (site CGATTATCTAG),0.0534
13,CGCAAGCCTTGGGTTCTAACCTGTTGCAT (site CGCAAGCCTAT),0.0608
14,CGCAAGCCTTGGGTTCTAACCTGTTGCAT (site CGTAAGCCTAT),0
15,CGCAGCCCTTGGGTTCTAACCTGTTGCAT (site CGCAGCCCTAT),0.462
16,CGCAGCCCTTGGGTTCTAACCTGTTGCAT (site CGGAGCCCTAT),0.0663
17,CGCAGCTCTTGGGTTCTAACCTGTTGCCT (site CGAAGCTCTAG),0.0165
18,CGCAGCTCTTGGGTTCTAACCTGTTGCCT (site CGCAGCTCTAG),0.0301
19,CGCAGCTCTTGGGTTCTAACCTGTTGCCT (site CGGAGCTCTAG),0.0445
20,CGCAGCTCTTGGGTTCTAACCTGTTGCCT (site CGTAGCTCTAG),0.511
